The source of these data is US4120857A, “Derivatives of 1,2,3,3-tetramethyl-2-azabicyclo[2.2.2]octan-5-endo-ol” (priority 1977, dated 1978).

Read-outs that look alike come from different tables or passages of the source.

For test [1], the system named is genetically hypertensive (spontaneously hypertensive) rats of the Okamato strain. The experiment in a line: Spontaneously Hypertensive Rat Test (antihypertensive activity). The class given is in vivo. Conditions: po, compounds dosed orally, five animals per test dose, read-out: MED (minimum effective dose), dose required to give a minimum of a 20 mm Hg drop in blood pressure from control. The text has this: Clin. Med. 78:957-962 (1971). Five animals were used for each test dose. Results of the test are expressed in the table below as the MED (minimum effective dose) or dose required to give a minimum of a 20 mm Hg drop in blood pressure from control. | *compounds dosed orally

In test [2] the test system is ventricular fibrillation by chloroform. The experiment in a line: Mouse Chloroform Test (antiarrhythmic activity). Type of test: in vivo, female swiss albino mice. To be noted: mice; for ED50: Mus musculus, read-out: ED50, dose required to protect 50% of the test animals against development of ventricular fibrillation by chloroform. On the procedure: 160:22-30 (1968). The test compounds were administered orally (p.o.) or intraperitoneally (i.p.) to female swiss albino mice weighing 16-24 grams. The arrhythmia induced by the chloroform was monitored by electrocardiogram recording and the normal and abnormal heart beats were tabulated.

Another test relates to corneal reflex. The experiment in a line: Local Anesthetic Test (corneal reflex procedure). The class given is in vivo, rabbits. To be noted: one drop into the conjunctival sac of one rabbit eye; isotonic saline. On the procedure:
In this test a corneal reflex was elicited in rabbits by lightly touching the cornea with a stiff hair or bristle which normally would cause the rabbit to blink. The assay was carried out using initially a 2% solution or suspension of the test compound in isotonic saline. A cup or pouch was formed of the lower eyelid by pulling down the lower lid, and one drop of the test compound was instilled into the conjunctival sac of one eye. The other eye serves as a control. The corneal reflex was tested every fifteen minutes until the reflex returned to normal. If the reflex could be elicited 3 out of 5 times, then there was considered to be no local anesthetic effect. If the reflex was blocked and the compound was determined to be a local anesthetic, lower concentrations were tested to determine the minimum concentration needed for local anesthetic activity. Results for several of the compounds of the present invention are expressed in the table below as the MEC (minimum effective concentration) or minimum concentration of compound required for local anesthetic activity.

`CC(=O)O[C@@H]1C[C@@]2(C)CC[C@@H]1C(C)(C)N2C` (relative stereo) [Example 1, 5-endo-Acetoxy-1,2,3,3-tetramethyl-2-azabicyclo[2.2.2]-octane]: in test [1], the minimal effective dose was determined as 12.5 mg/kg.

`CN1C(C)(C)[C@H]2CC[C@]1(C)C[C@H]2OC(=O)C1CC1` (relative stereo) [Example 2A, 5-endo-Cyclopropylcarbonyloxy-1,2,3,3-tetramethyl-2-azabicyclo-[2.2.2]octane]: the minimal effective dose in test [1] was 25 mg/kg. Consider `COc1cc(C(=O)O[C@@H]2C[C@@]3(C)CC[C@@H]2C(C)(C)N3C)cc(OC)c1OC` (relative stereo) [Example 2C, 5-endo-(3,4,5-Trimethoxybenzoyl-oxy)-1,2,3,3-tetramethyl-2-azabicyclo[2.2.2]octane], for which the ED50 in test [2] (ip) was 50 mg/kg. Take `CCCC(=O)O[C@@H]1C[C@@]2(C)CC[C@@H]1C(C)(C)N2C` (relative stereo) [Example 2D, 5-endo-Butyryloxy-1,2,3,3-tetramethyl-2-azabicyclo[2.2.2]-octane]: the ED50 in test [2] (po) came to 80 mg/kg. Regarding `CN1C(C)(C)[C@H]2CC[C@]1(C)C[C@H]2OC(=O)c1ccc(N)cc1` (relative stereo) [Example 2F, 5-endo-(p-Aminobenzoyloxy)-1,2,3,3-tetramethyl-2-azabicyclo-[2.2.2]octane], the median effective dose (ED50) in test [2] (ip) was 6.3 mg/kg; in test [2] (po), 25 mg/kg. Also, the “MEC (minimum effective concentration), minimum concentration of compound required for local anesthetic activity” value (shortened to “MEC (minimum effective concentration)”) with corneal reflex is on record as 2.0%. As to `CN1C(C)(C)[C@H]2CC[C@]1(C)C[C@H]2OC(=O)C(c1ccccc1)c1ccccc1` (relative stereo) [Example 2G, 5-endo-(Diphenylacetoxy)-1,2,3,3-tetramethyl-2-azabicyclo[2.2.2]-octane], the results for the median effective dose (ED50) in test [2] (ip) and in test [2] (po) were 12.5 mg/kg and 20 mg/kg, respectively. For the same molecule, in the test on corneal reflex, the “MEC (minimum effective concentration)” value is recorded as 0.25%.

Consider `CN1C(C)(C)[C@H]2CC[C@]1(C)C[C@H]2OCCCNC(=O)c1ccccc1` (relative stereo) [Example 3, 5-endo-(3-Benzoylaminopropyloxy)-1,2,3,3-tetramethyl-2-azabicyclo[2.2.2]octane], for which the median effective dose (ED50) in test [2] (po) was 10 mg/kg. Also, the “MEC (minimum effective concentration)” value with corneal reflex amounted to 0.5%. The like results for `CN1C(C)(C)[C@H]2CC[C@]1(C)C[C@H]2OCCCNC(=O)C(c1ccccc1)c1ccccc1` (relative stereo) [Example 4, 5-endo-(3-Diphenylacetylaminopropyloxy)-1,2,3,3-tetramethyl-2-azabicyclo[2.2.2]octane] were, in that order, 10 mg/kg and 0.5%. Consider `CN1C(C)(C)[C@H]2CC[C@]1(C)C[C@H]2OC(=O)Nc1ccccc1` (relative stereo) [Example 5, 5-endo-Phenylcarbamoyloxy-1,2,3,3-tetramethyl-2-azabicyclo[2.2.2]octane], for which, in test [2] (po), the ED50 turned out to be 44 mg/kg.

On to `CN1C2(C)CCC(C(OC(=O)c3ccccc3)C2)C1(C)C` (stereo not drawn) [Example 2B, 5-endo-Benzoyloxy-1,2,3,3-tetramethyl-2-azabicyclo(2.2.2]-octane], for which, in test [2] (i.p.), the “ED50, dose required to protect 50% of the test animals against development of ventricular fibrillation by chloroform” value amounted to 50 mg/kg.

As usually defined, the ED50 is the dose at which the effect has come halfway, by size or by number of responders.
